Data reported in article PMC12051768, “Reduced Renal Uptake of Various Radiopharmaceuticals with Sodium Paraaminohippurate Coadministration in a Rat Model” (Journal of Nuclear Medicine, 2025).
“Also recorded” adds a separate entry of the source. Like-named read-outs stand apart in the source and are kept apart here.

Experiments:
[1] = SPECT/CT quantification of kidney activity after coinjection of radiotracers with NaCl, Arg-Lys or paraaminohippurate; assay type: in vivo, Wistar rats; conditions: for relative change of kidney uptake with 200 mg/mL paraaminohippurate coinjection in comparison to 0.9% NaCl: imaging, negative = reduction; for effect of paraaminohippurate coinjection on renal uptake (in words): compared with NaCl coinjection
Procedure: Approximately 10 min later, 50–60 MBq of the ^177Lu-radiolabeled radiopharmaceuticals were injected intravenously in combination with 0.5 mL of 0.9% NaCl, 0.5 mL of paraaminohippurate (200 mg/mL), or 0.5 mL of Arg-Lys (200 mg/mL). At 0.5, 1, 4, 8, and 24 h after injection of the ^177Lu-radiolabeled compounds, SPECT/CT imaging was conducted under isoflurane anesthesia, using Mediso nano-SPECT/CT with a Silver upgrade system (Mediso Kft). VivoQuant version 1.22 software (VivoQuant) was used to determine the volume of interest and to quantify the activity in the kidneys.

[2] = PET quantification of kidney activity of [^68Ga]Ga-PSMA-11 with NaCl or paraaminohippurate; conditions: for relative change of kidney uptake with 200 mg/mL paraaminohippurate coinjection in comparison to 0.9% NaCl: negative = reduction; for effect of paraaminohippurate coinjection on renal uptake (in words): compared with NaCl coinjection
Procedure: PET experiments were conducted by CROmed Translational Research Center Ltd. Healthy adult male Wistar rats (3 animals per group) received an intraperitoneal priming dose of 1 mL of 0.9% NaCl, 1 mL of paraaminohippurate (200 mg/mL), or 1 mL of Arg-Lys (200 mg/mL), followed by 15–30 MBq of [^68Ga]Ga-PSMA-11 once intravenously in combination with 0.9% NaCl, paraaminohippurate, or Arg-Lys. PET examinations were conducted on an upgraded small-animal PET PRIMATE P4 scanner (Concorde Microsystems Inc.) at 5 min and 0.5, 1, 2, and 4 h after injection.

[3] = Tolerability of paraaminohippurate coadministration; assay type: in vivo; conditions: rats, 200 mg/mL solution, intraperitoneal priming plus intravenous coinjection
Procedure: Experiments were conducted at the Helmholtz-Zentrum Dresden-Rossendorf, Institute of Radiopharmaceutical Cancer Research (approved by Landesdirektion Dresden, number DD24.1-5131/450/16, July 6, 2018). Groups of 5 male Wistar rats each (average body weight, 210 g) were randomized for coinjection of 0.9% NaCl, Arg-Lys solution (200 mg/mL), or paraaminohippurate solution (200 mg/mL). The animals received an intraperitoneal priming dose of 1.0 mL of 0.9% NaCl, 1.0 mL of Arg-Lys, or 1.0 mL of paraaminohippurate solution 10 min before radiotracer injection. The injection solutions for the biodistribution were prepared as mix of [^177Lu]Lu-DOTATOC solution added to 1.5 mL of NaCl, Arg-Lys, or paraaminohippurate solution. The average injected activity ± SD of [^177Lu]Lu-DOTATOC was 4.32 ± 0.51 MBq/kg in 4 animals, whereas 1 rat per group received 149 ± 15 MBq/kg. […]
Approximately 10 min later, 50–60 MBq of the ^177Lu-radiolabeled radiopharmaceuticals were injected intravenously in combination with 0.5 mL of 0.9% NaCl, 0.5 mL of paraaminohippurate (200 mg/mL), or 0.5 mL of Arg-Lys (200 mg/mL). […] VivoQuant version 1.22 software (VivoQuant) was used to determine the volume of interest and to quantify the activity in the kidneys.

[4] = glomerular filtration and proximal tubular secretion; cited from earlier work
[5] = parameters: method as in PMID 38637142; conditions: 12 patients treated with [^177Lu]Lu-DOTATOC; cited from earlier work
[6] = parameters: species or system Wistar rats; conditions: male, Wistar, rat, in vivo
Procedure: Experiments were conducted at the Helmholtz-Zentrum Dresden-Rossendorf, Institute of Radiopharmaceutical Cancer Research (approved by Landesdirektion Dresden, number DD24.1-5131/450/16, July 6, 2018). Groups of 5 male Wistar rats each (average body weight, 210 g) were randomized for coinjection of 0.9% NaCl, Arg-Lys solution (200 mg/mL), or paraaminohippurate solution (200 mg/mL). The animals received an intraperitoneal priming dose of 1.0 mL of 0.9% NaCl, 1.0 mL of Arg-Lys, or 1.0 mL of paraaminohippurate solution 10 min before radiotracer injection. The injection solutions for the biodistribution were prepared as mix of [^177Lu]Lu-DOTATOC solution added to 1.5 mL of NaCl, Arg-Lys, or paraaminohippurate solution. The average injected activity ± SD of [^177Lu]Lu-DOTATOC was 4.32 ± 0.51 MBq/kg in 4 animals, whereas 1 rat per group received 149 ± 15 MBq/kg.
As for paraaminohippurate, 500 mg paraaminohippurate were administered per rat; […] thereof via intravenous injection; this by itself already results in an initial plasma concentration far exceeding the saturating 800 mg/L stated in ([16]). […]
Animals were killed 5 and 60 min after radiotracer injection; organs and tissues of interest were extracted, and their mass and activity were determined. Activities were counted in an automatic γ-counter, which was cross-calibrated with a dose calibrator by 3 standard samples. […]

[7] = NaCl coinjection, AUC within first hour after injection
[8] = PAH coinjection in comparison to NaCl
[9] = PAH coinjection, AUC within first hour after injection
[10] = independent of the coinjected compound
[11] = paraaminohippurate vs NaCl coinjection
[12] = male, Wistar, rat, in vivo, %ID/g of kidney tissue

For O=C([O-])CC[C@H](NC(=O)N[C@@H](CCCCNC(=O)CCCCCCC(=O)NCCCC[C@@H](NC(=O)[C@@H](Cc1ccccc1)NC(=O)[C@@H](Cc1ccc(O)c(I)c1)NC(=O)CC[C@H](C(=O)[O-])N1CCN(CC(=O)[O-])CCN(CC(=O)[O-])CCN(CC(=O)[O-])CC1)C(=O)[O-])C(=O)[O-])C(=O)[O-].[177Lu+3].[H+].[H+].[H+].[H+].[H+] [[^177Lu]Lu-PSMA-I&T], the “relative change of kidney uptake with 200 mg/mL paraaminohippurate coinjection in comparison to 0.9% NaCl” value (“relative change of kidney uptake … to 0.9% NaCl” for short) ([1]; 0.5 h) was −18%, the “relative change of kidney uptake … to 0.9% NaCl” value ([1]; 1 h) was −22% and the “relative change of kidney uptake … to 0.9% NaCl” value ([1]; 4 h) was −61%. For the same molecule, the “kidney AUC0–1 h, NaCl” value [1, 7] was 64.7 %ID/g*h, the “kidney AUC0–1 h, Difference” value [1, 8] was −34% and the “kidney AUC0–1 h, PAH” value [1, 9] was 42.8 %ID/g*h. The “effect of paraaminohippurate coinjection on renal uptake (in words)” value (from here on “effect of paraaminohippurate coinjection”) [1] was “To a lesser extent, paraaminohippurate-mediated nephroprotection was observed”, the “effect of paraaminohippurate coinjection” value ([1]; listed as PSMA-I&T) was “reduced” and the “time of peak / maximum kidney activity after injection” value [1, 10] was 0.5 h. The “reduction of kidney AUC within the first hour after injection” value [1, 11] was 34%.
In the case of O=C([O-])CN(CCN(CC(=O)[O-])Cc1cc(CCC(=O)NCCCCCC(=O)NCCCC[C@H](NC(=O)N[C@@H](CCC(=O)O)C(=O)O)C(=O)O)ccc1[O-])Cc1cc(CCC(=O)O)ccc1[O-].[68Ga+3].[OH3+] [[^68Ga]Ga-PSMA-11], the “relative change of kidney uptake … to 0.9% NaCl” value ([2]; 5 min) is reported as −21%, the “relative change of kidney uptake … to 0.9% NaCl” value ([2]; 0.5 h) is reported as −23% and the “relative change of kidney uptake … to 0.9% NaCl” value ([2]; 1 h) is reported as −37%. For the same molecule, the “relative change of kidney uptake … to 0.9% NaCl” value ([2]; 2 h) was −5%, the “relative change of kidney uptake … to 0.9% NaCl” value ([2]; 4 h) was “+15%” and the “kidney AUC0–1 h, NaCl” value [2, 7] was 45.9 %ID/g*h. For the same molecule, the “kidney AUC0–1 h, Difference” value [2, 8] was −19%, the “kidney AUC0–1 h, PAH” value [2, 9] was 37.1 %ID/g*h and the “effect of paraaminohippurate coinjection” value [2] was “To a lesser extent, paraaminohippurate-mediated nephroprotection was observed”. The “effect of paraaminohippurate coinjection” value ([2]; listed as PSMA-11) was “reduced”, the “time of peak kidney activity after injection” value [2, 10] was 0.5 h and the “reduction of kidney AUC within the first hour after injection” value [2, 11] was 19%.
For Nc1ccc(C(=O)NCC(=O)[O-])cc1.[Na+] [paraaminohippurate, sodium paraaminohippurate], the “tolerability / toxicity of coadministration” value [3] is given as “well tolerated, and no immediate or delayed toxicity was observed”, the “tolerability / toxicity of coadministration” value ([3]; listed as Paraaminohippurate) is given as “well tolerated, with no toxicity observed” and the “fraction filtered by the kidney from the plasma in a single pass-through” value [4] is given as “more than 90%”. For the same molecule, the “kidney uptake of the radiolabeled compound versus Arg-Lys solution” value [5] was “comparable” and the tolerability in patients [5] was “well tolerated”.
In the case of [^177Lu]Lu-DOTATATE, the “relative change of kidney uptake … to 0.9% NaCl” value ([1]; 0.5 h) is reported as −80%, the “relative change of kidney uptake … to 0.9% NaCl” value ([1]; 1 h) is reported as −83% and the “relative change of kidney uptake … to 0.9% NaCl” value ([1]; 4 h) is reported as −56%. The “relative change of kidney uptake … to 0.9% NaCl” value ([1]; 8 h) was −49%, the “relative change of kidney uptake … to 0.9% NaCl” value ([1]; 24 h) was −46% and the “kidney AUC0–24 h, NaCl” value ([1]; NaCl coinjection, AUC within 24 h after injection) was 113.7 %ID/g*h. For the same molecule, the “kidney AUC0–24 h, Difference” value [1, 8] was −60%, the “kidney AUC0–24 h, PAH” value ([1]; PAH coinjection, AUC within 24 h after injection) was 45.4 %ID/g*h and the “effect of paraaminohippurate coinjection” value [1] was “significantly lower; also recorded: markedly diminished; also recorded: significantly reduced”. The “time of peak / maximum kidney activity after injection” value [1, 10] was 0.5 h.
In the case of C[C@@H](O)[C@@H]1NC(=O)[C@H](CCCCN)NC(=O)[C@@H](Cc2c[nH]c3ccccc23)NC(=O)[C@H](Cc2ccc(O)cc2)NC(=O)[C@@H](NC(=O)[C@@H](Cc2ccccc2)NC(=O)CN2CCN(CC(=O)O)CCN(CC(=O)O)CCN(CC(=O)O)CC2)CSSC[C@@H](C(=O)N[C@H](CO)[C@@H](C)O)NC1=O [[^177Lu]Lu-DOTATOC, metal not drawn], the kidney uptake ([6]; 5 min) is reported as 2.93 ± 0.42 %ID/g, the kidney uptake ([6]; 1 h) is reported as 2.16 ± 0.31 %ID/g and the “%ID/g of kidney tissue” value ([1]; male, Wistar, rat, in vivo, 0.5 h) is reported as 13.3 (8.4) %ID/g. For the same molecule, the “%ID/g of kidney tissue” value ([1]; male, Wistar, rat, in vivo, 8 h) was 2.7 (0.0) %ID/g, the tissue uptake at 1 h [1, 12] was 12.2 %ID/g and the tissue uptake at 4 h [1, 12] was 2.7 %ID/g. For the same molecule, the tissue uptake at 24 h [1, 12] was 2.4 %ID/g, the “kidney AUC0–24 h, Difference” value ([1]; rat, in vivo) was −51% and the “kidney AUC0–24 h, NaCl” value ([1]; rat, in vivo) was 87.0 %ID/g*h. The “kidney AUC0–24 h, PAH” value ([1]; rat, in vivo) was 43.0 %ID/g*h and the “time of peak / maximum kidney activity after injection” value ([1]; rat, in vivo) was 0.5 h.
